Source: US5573908A, “Adrenergic receptor as a proto-oncogene” (Duke University, priority 1993, dated 1996)
Several values for one entry are separate records, joined by “and”; a condition that tells them apart may be missing. Equal values may be shown once.

Tests used:
α1B ADR = biological target: T1, α1B ADR (Mesocricetus auratus, UniProt P18841); assay: NE stimulated PI hydrolysis in RAT-1 cell lines expressing the α1B ADR; format: cell-based, hamster
T1 construct: expressed in transfected cells; host or cells: RAT-1 fibroblasts (vector pZIP-NeoSV(X)1), focus-derived, G418-selected lines
T1 sequence (P18841 1-515): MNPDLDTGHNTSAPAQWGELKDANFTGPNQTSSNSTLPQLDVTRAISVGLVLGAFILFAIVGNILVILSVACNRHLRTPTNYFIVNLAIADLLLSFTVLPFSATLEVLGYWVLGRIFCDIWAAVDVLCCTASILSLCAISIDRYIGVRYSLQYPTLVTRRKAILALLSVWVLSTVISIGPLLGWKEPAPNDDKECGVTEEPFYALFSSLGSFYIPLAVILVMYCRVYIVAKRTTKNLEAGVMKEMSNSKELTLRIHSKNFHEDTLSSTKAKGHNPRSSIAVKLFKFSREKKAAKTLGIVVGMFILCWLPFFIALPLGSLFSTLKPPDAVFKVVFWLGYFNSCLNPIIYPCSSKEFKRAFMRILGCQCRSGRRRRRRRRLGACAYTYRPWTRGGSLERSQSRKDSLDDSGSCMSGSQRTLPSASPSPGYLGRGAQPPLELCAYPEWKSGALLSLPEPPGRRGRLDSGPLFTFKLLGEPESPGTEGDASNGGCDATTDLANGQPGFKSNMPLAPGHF
Protocol: In Table 3, RAT-1 fibroblast cell lines transfected with expression vector alone or derived from transformed foci (α1B ADR or α1B ADR mutant) were selected with G418 (300 μg/ml). Ligand binding was performed on membranes prepared from two clones of each in accordance with known techniques (S. Cotecchia et al., Life Sci. 37, 2389 (1986)). For saturation binding analysis, [^125 ] HEAT concentrations ranged from 10 to 500 pM, nonspecific binding was determined using 1 μM prazosin; in competition experiments, the radioligand concentration was 100 pM. Ligand binding parameters were determined using computerized iterative nonlinear regression analysis (P. Munson, Methods in Enzymol. 92, 5432 (1983)). For assessment of receptor coupling to PI hydrolysis, cells were plated in 30 mm dishes, and labeled overnight with 3 μCi/ml of myo-[2-^3 II(N)]-inositol (1Ci=37 GBq; NEN Research Products) in DMEM containing 3.3% FBS in accordance with known techniques (S. Cotecchia et al., Proc. Natl. Acad. Sci. USA 87, 2896 (1990)). After 40 minute stimulation of cells with 10 μM norepinephrine (NE), inositol phosphates were extracted, and separated on AG 1-X8 anion exchange columns (BioRad Labs) in accordance with known techniques (S. Cotecchia et al., Proc. Natl. Acad. Sci. USA 87, 2896 (1990)). Total inositol phosphates were eluted with 1M ammonium formate/0.1M formic acid. […]

[1] = tested on: RAT-1 fibroblast cell lines expressing the α1B -ADR; assay: cells; details: 600 h, read-out: final cell density (day 25) relative to control
Protocol: Growth curves of G418 selected RAT-1 fibroblast cell lines transfected with vector alone (A), or expressing the α1B -ADR (B) or α1B -ADR mutant (C) in the absence (------) or presence (---) of norepinephrine (NE). Cells were plated in 100mm dishes at a density of 5×10^5 cells per dish in DMEM containing 5% FBS. After 24 hours, half the dishes received daily supplementation with 10 μM NE, and all dishes were fed with fresh medium every 2-3 days. At each time point, cells were trypsinized and cell counts determined using an electronic particle counter (Coulter Electronics). Values represent the mean of duplicate determinations of a representative experiment, which agree within 6%.
To quantitate receptor-mediated effects on mitogenesis, basal and NE-stimulated growth rates were assessed on cell lines expressing the wild type or mutant α1B -ADRs.

[2] = NE stimulated PI hydrolysis in RAT-1 cell lines transfected with vector alone; format: cell-based; details: 40 min, 10 μM NE, 40 minute, two clones, read-out: NE Stimulated PI Hydrolysis Rmax
Description: In cell lines expressing the α1B -ADR mutant, NE induced a 900 to 1000% increase in inositol phosphates (Table 3); this level of PI hydrolysis was only seen in cells expressing the wild type receptor with a two fold higher level of receptor expression. […] The α1B -ADR, appearing on the surface of RAT-1 fibroblasts following transfection, therefore, functionally couples to PI hydrolysis in these cells. Whether receptor coupling to PLC actually mediates the α1B -ADR's ability to induce malignant transformation in these cells, however, remains speculative. Coupling of this receptor to alternate G proteins or effector systems may be responsible for triggering uncontrolled cell proliferation.
In Table 3, RAT-1 fibroblast cell lines transfected with expression vector alone or derived from transformed foci (α1B ADR or α1B ADR mutant) were selected with G418 (300 μg/ml). Ligand binding was performed on membranes prepared from two clones of each in accordance with known techniques (S. Cotecchia et al., Life Sci. 37, 2389 (1986)). For saturation binding analysis, [^125 ] HEAT concentrations ranged from 10 to 500 pM, nonspecific binding was determined using 1 μM prazosin; in competition experiments, the radioligand concentration was 100 pM. Ligand binding parameters were determined using computerized iterative nonlinear regression analysis (P. Munson, Methods in Enzymol. 92, 5432 (1983)). […]

## NC[C@H](O)c1ccc(O)c(O)c1 [NE, norepinephrine]
α1B ADR; 10 μM NE, 40 minute, increase of total labeled inositol phosphates over basal, two clones
  NE Stimulated PI Hydrolysis Rmax: 758 % increase and 410 % increase
α1B ADR; focus-derived fibroblasts expressing α1B-ADR
  increase in total inositol phosphates following NE stimulation: 400 to 800%
[1]
  fold induction at 10 µM: 1.9
[2]
  activation at 10 µM: 0%
